Results taken from the NIST ThermoML archive (doi:10.1021/je0501585).

Test: xn = mol fraction of the nth substance listed
Conditions: 101 kPa, Liquid; for viscosity: Capillary tube (Ostwald / Ubbelohde) method; for excess molar volume: Direct dilatometry; for speed of sound: Linear variable-path acoustic interferometer

Cc1ccc(C)cc1 [1,4-dimethylbenzene] + CCCCCCCCCC
Conditions	excess molar volume, 303.15 K [m3/mol]	excess molar volume, 308.15 K [m3/mol]	excess molar volume, 313.15 K [m3/mol]	speed of sound, 303.15 K [m/s]	speed of sound, 308.15 K [m/s]	speed of sound, 313.15 K [m/s]	viscosity, 303.15 K [mPa·s]	viscosity, 308.15 K [mPa·s]	viscosity, 313.15 K [mPa·s]
x1 = 0.1533	2.83e-07	4.89e-07	6.99e-07	1215.1	1192.3	1176.9	0.729	0.678	0.66
x1 = 0.2952	4.35e-07	6.8e-07	9.11e-07	1220	1197.6	1182	0.68	0.639	0.623
x1 = 0.4189	5.14e-07	7.6e-07	9.8e-07	1225.5	1203.1	1187.7	0.646	0.609	0.59
x1 = 0.4949	5.29e-07	7.59e-07	9.81e-07	1230	1207.3	1192	0.628	0.592	0.573
x1 = 0.6001	4.9e-07	7.03e-07	9.41e-07	1237.9	1214.1	1198.8	0.605	0.572	0.552
x1 = 0.6938	4.26e-07	6.32e-07	8.76e-07	1246.6	1221.6	1205.6	0.588	0.557	0.538
x1 = 0.7777	3.54e-07	5.56e-07	7.71e-07	1255.4	1229	1212.5	0.576	0.546	0.527
x1 = 0.8604	2.73e-07	4.55e-07	6.47e-07	1265.3	1238.4	1221.3	0.568	0.539	0.519
x1 = 0.9332	1.72e-07	3.03e-07	4.4e-07	1274.4	1251	1232.8	0.566	0.537	0.515
x1 = 1	0	0	0	1283.7	1271	1260	0.566	0.537	0.513
